# ChEMBL document CHEMBL1201862, “PubChem BioAssay data set” (2004)
# Activity calls are given as the source filed them.
# Experiments:
# [1] = viability loss in THP-1 monocytes – THP-1 cells, cytotoxicity control for Vif-APOBEC3G degradation inhibitor project, dose response (AID 1117359); assay type: functional; details: THP-1
# Protein Tat = target: T1, Protein Tat (Human immunodeficiency virus type 1 group M subtype B (isolate HXB2)(HIV-1), UniProt P04608); assay type: functional;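 note: tat binding to TAR RNA read out by fluorescence polarization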
# T1 sequence (P04608 whole entry): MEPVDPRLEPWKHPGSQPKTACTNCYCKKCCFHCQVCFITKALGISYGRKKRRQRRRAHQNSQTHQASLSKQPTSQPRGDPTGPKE
# Caspase-6 = Caspase-6 (Homo sapiens, UniProt P55212); experiment: inhibition of CASP6 peptide cleavage – biochemical, VEID-R110 fluorescence, cherry-pick, dose response (AID 720632)
# Caspase-6, sequence (P55212 24-179 limits assumed): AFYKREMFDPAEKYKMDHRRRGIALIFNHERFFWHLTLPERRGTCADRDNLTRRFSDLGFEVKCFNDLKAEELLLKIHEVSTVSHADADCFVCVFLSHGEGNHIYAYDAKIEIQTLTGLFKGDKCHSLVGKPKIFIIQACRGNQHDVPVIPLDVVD
# Caspase-6, sequence (P55212 194-293 limits assumed): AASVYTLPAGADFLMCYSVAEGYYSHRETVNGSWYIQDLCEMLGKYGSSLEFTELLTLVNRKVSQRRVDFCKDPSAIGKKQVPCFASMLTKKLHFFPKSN
# [2] = HIV-1 Vif–A3G interaction blockers – biochemical, TR-FRET, GST-Vif 1-94, biotin-A3G peptide, dose response retest, primary screen (AID 1117319); assay type: functional;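 note: TR-FRET signal of purified GST-Vif binding a biotinylated A3G peptide; inhibitors lower the FRET signal by blocking Vif and A3G binding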
# Genome polyprotein = Genome polyprotein (dengue virus type 2, UniProt P29990); experiment: flavivirus cap methylation enzyme inhibition – biochemical, confirmation dose response, primary screen (AID 588689); assay type: functional
# Genome polyprotein, sequence (P29990 2492-3391 limits assumed): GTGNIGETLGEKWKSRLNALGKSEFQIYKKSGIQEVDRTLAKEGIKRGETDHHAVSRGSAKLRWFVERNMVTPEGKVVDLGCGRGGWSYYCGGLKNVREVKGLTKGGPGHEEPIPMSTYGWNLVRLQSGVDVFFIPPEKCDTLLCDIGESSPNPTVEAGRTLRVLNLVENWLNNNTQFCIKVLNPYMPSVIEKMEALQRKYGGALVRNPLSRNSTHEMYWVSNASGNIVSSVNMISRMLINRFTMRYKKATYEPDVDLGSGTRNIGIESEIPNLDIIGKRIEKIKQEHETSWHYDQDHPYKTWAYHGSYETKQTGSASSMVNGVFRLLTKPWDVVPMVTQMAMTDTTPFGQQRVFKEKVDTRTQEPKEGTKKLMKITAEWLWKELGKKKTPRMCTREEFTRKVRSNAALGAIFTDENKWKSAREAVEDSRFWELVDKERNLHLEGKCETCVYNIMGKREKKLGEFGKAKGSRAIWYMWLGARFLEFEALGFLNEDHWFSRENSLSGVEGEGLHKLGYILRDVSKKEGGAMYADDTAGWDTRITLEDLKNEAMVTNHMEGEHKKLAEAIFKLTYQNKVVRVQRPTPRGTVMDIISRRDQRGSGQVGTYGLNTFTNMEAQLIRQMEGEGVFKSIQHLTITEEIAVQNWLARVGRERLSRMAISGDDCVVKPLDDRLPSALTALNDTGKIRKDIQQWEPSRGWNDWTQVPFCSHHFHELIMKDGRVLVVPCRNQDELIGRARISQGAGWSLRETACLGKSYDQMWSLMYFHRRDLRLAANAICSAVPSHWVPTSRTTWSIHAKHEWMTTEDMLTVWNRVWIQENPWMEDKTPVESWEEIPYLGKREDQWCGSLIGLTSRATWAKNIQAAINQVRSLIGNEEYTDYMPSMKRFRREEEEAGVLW
# fMet-Leu-Phe receptor = fMet-Leu-Phe receptor (Homo sapiens, UniProt P21462); experiment: formyl peptide receptor binders – dose response (AID 519); assay type: functional
# fMet-Leu-Phe receptor, sequence (P21462 whole entry): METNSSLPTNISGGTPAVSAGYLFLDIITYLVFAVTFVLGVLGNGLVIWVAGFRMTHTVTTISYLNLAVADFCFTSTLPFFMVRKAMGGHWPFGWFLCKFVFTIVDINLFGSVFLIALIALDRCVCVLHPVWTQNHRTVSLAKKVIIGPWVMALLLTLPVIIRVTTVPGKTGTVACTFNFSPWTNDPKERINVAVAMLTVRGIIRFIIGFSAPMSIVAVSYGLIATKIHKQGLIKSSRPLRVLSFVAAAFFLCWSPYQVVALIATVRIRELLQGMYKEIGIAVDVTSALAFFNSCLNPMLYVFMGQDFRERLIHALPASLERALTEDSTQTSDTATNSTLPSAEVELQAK
# [3] = intracellular Trypanosoma cruzi inhibitors in host cells – cell-based, plate reader, cherry-pick samples, set 3, dose response (AID 651818); assay type: functional;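 note: compounds incubated with infected cells for about four days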
# [4] = reduced cellular PGC1a acetyl-lysine signal – cell-based, cherry-picked samples, dose response (AID 720514); assay type: functional;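 note: potency may reflect raised or lowered acetylation signal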
# [5] = HEK293 Cytotoxicity Assay Measured in Cell-Based System Using Plate Reader - 7071-01_Inhibitor_Dose_CherryPick_Activity_Set2.; assay type: functional
# HeLa = experiment: viability loss in HeLa cells – cell-based, ATP luminescence, cherry-pick samples, cytotoxicity control, dose response (AID 687004); assay type: functional; details: Homo sapiens
# HEK293 [6] = experiment: viability loss in HEK293T cells – cell-based, ATP luminescence, cherry-pick samples, cytotoxicity control, dose response (AID 687005); assay type: functional; details: Homo sapiens;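 note: cells exposed to compound for 48 hours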
# [7] = target: Endoplasmic reticulum aminopeptidase 1 (Homo sapiens, UniProt Q9NZ08); experiment: inhibition of human ERAP1 enzyme activity – biochemical, cherry-pick, set 2, plate reader, dose response (AID 743314)
# Endoplasmic reticulum aminopeptidase 1, sequence (Q9NZ08 whole entry): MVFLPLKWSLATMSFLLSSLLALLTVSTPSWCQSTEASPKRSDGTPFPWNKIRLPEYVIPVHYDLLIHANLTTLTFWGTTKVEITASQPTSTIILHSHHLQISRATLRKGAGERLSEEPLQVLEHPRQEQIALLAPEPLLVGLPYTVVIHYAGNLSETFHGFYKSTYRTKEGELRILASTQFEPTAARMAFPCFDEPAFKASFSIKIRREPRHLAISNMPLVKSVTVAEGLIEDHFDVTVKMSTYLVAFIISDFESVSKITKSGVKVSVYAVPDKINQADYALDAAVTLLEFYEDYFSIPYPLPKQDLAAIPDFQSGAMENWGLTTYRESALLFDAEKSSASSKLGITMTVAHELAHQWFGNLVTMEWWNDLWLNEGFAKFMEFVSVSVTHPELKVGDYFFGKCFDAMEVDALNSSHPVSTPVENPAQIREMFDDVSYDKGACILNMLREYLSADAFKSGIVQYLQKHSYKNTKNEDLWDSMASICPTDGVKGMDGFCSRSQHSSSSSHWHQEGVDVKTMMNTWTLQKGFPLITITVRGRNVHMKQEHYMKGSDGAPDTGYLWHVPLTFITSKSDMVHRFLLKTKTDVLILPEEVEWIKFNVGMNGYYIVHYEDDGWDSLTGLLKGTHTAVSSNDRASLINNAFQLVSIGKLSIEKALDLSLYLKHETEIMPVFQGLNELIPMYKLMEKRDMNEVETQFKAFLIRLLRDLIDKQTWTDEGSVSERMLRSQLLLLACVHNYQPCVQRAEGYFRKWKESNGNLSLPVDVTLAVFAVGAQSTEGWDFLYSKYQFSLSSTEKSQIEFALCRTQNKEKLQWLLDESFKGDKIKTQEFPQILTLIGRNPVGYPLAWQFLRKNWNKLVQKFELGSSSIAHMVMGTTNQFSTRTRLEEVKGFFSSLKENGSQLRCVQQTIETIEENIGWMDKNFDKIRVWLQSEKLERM
# HEK293 [8] = experiment: cells; assay type: functional, cell-based; details: Homo sapiens
# [9] = target: T2, Nuclear receptor subfamily 0 group B member 1 (Homo sapiens, UniProt P51843); experiment: Luminescence-based cell-based high throughput dose response assay for inhibitors of the orphan nuclear receptor subfamily 0, group B, member 1 (DAX1; NR0B1). [Related pubchem assays (depositor defined):AID504766, AID504790]; assay type: functional
# T2 sequence (P51843 whole entry): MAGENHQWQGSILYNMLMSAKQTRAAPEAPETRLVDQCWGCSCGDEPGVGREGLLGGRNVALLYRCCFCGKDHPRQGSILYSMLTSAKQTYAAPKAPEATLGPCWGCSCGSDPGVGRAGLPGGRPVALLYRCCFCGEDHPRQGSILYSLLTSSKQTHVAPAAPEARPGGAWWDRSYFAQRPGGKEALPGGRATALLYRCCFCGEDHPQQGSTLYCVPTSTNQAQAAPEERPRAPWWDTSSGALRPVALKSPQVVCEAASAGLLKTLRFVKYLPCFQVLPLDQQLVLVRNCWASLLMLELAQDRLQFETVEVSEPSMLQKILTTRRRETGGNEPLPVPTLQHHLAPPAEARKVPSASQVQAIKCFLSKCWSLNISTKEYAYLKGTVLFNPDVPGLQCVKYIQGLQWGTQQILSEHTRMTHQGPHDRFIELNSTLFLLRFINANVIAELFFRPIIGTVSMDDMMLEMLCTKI
# [10] = target: T3, Oxysterols receptor LXR-beta (Homo sapiens, UniProt P55055); experiment: LXR agonists, Gal4 luciferase reporter, dose response, counter-screen for ssDAF-12 agonist project, cell-based, luminescence, HEK293, S. stercoralis campaign (AID 720737); assay type: functional; details: read-out: IC50 (the source's name)
# T3 sequence (P55055 whole entry): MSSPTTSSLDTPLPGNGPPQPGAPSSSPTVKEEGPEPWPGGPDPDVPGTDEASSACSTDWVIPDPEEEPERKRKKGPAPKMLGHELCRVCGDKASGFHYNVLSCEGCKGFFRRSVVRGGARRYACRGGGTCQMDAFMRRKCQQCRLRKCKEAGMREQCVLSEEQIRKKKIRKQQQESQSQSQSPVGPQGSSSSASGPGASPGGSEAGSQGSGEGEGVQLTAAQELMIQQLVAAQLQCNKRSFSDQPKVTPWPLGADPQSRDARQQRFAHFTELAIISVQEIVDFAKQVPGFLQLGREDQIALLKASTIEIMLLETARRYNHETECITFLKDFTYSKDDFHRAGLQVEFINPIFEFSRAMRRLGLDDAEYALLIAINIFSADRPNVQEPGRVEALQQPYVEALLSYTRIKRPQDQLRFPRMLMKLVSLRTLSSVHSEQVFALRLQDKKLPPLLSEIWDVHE
# [11] = Luminescence-based cell-based high throughput dose response assay to identify activators of the DAF-12 from the parasite S. stercoralis (ssDAF-12).; assay type: functional
# [12] = P. falciparum Dd2 growth inhibitors, dose response, SYBR Green, cherry-picked samples (AID 1159567); assay type: functional, cell-based
# [13] = Dd2 malaria parasite growth inhibition potency – SYBR Green, dry powder samples, dose response (AID 1159566); assay type: functional, cell-based;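 note: potency for growth inhibition with lower SYBR green DNA signal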
# [14] = growth inhibition of PfATP4-mutant resistant parasites – NITD609-resistant line, SYBR Green, dry powder, dose response (AID 1159571); assay type: functional, cell-based;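 note: parasites synchronized at ring stage by sorbitol before testing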
# [15] = growth inhibition of yeast DHODH-expressing 3D7 parasites – SYBR Green, dry powder samples, dose response (AID 1159570); assay type: functional, cell-based;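 note: parasite growth measured after 72 hours of compound exposure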
# [16] = toxicity to human HepG2 hepatoma cells – cell-based, plate reader, dry powder samples, cytotoxicity control, dose response (AID 1159569); assay type: functional;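 note: inhibitor potency with signal falling toward the positive control level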
# [17] = toxicity to human hepatoma HepG2 cells – cell-based, cherry-picked samples, cytotoxicity control, dose response (AID 1159577); assay type: functional
# [18] = cytotoxicity toward HT-29 cells – cell-based, CellTiter-Glo luminescence, IC50, dose response (AID 1117330); assay type: functional
# [19] = cytotoxicity toward HCT116 cells – cell-based, CellTiter-Glo luminescence, IC50, dose response (AID 1117332); assay type: functional; details: HCT-116
# [20] = cytotoxicity toward Colo320 cells – cell-based, CellTiter-Glo luminescence, IC50, dose response (AID 1117334); assay type: functional; details: COLO 320
# [21] = RKO cell viability reduction, dose response, CellTiter-Glo luminescence (AID 1117322); assay type: functional
# [22] = CellTiter-Glo luminescence survival assay, SW480 colon tumor line, concentration-response curve, half-maximal inhibitory concentration (AID 1117338); assay type: functional
# [23] = Reduced DLD-1 viability, concentration-response, CellTiter-Glo luminescence (AID 1117352); assay type: functional
# [24] = SNU-C1 cell viability reduction, dose response, CellTiter-Glo luminescence (AID 1117323); assay type: functional, cell-based
smiles,measurement,setting,value
O=C(c1ccccc1NS(=O)(=O)c1ccc([N+](=O)[O-])cc1[N+](=O)[O-])N1O[C@@H]2C=C[C@H]1C2,CC50,[1],36.7 µM (active)
same,IC50,Protein Tat,> 100 µM (active)
same,AC50,Caspase-6,9.9 µM (active)
same,IC50,[2],> 100 µM (active)
same,IC50,Genome polyprotein,45.4 µM (active)
CCc1ccccc1NC(=O)C(C#N)Cc1cccnc1 (configuration not stated),Ki,fMet-Leu-Phe receptor,31.7 µM (inactive)
C[C@H](CO)N1C[C@H](C)[C@H](CN(C)Cc2ccc(Oc3ccccc3)cc2)Oc2c(NC(=O)Nc3ccc4c(c3)OCO4)cccc2C1=O,AC50,[3],3.78 µM (active)
same,AC50,[4],16.9 µM (active)
C[C@@H]1CN([C@H](C)CO)S(=O)(=O)c2ccc(C#CC3CC3)cc2O[C@H]1CN(C)CC1CCOCC1,AC50,[5],15.4 µM (active)
same,AC50,HeLa,> 52 µM (inactive)
same,AC50,HEK293 [6],15.4 µM (active)
CO[C@@H](CN(C)Cc1cc(F)ccc1F)[C@@H](C)CN([C@H](C)CO)S(=O)(=O)c1ccc(F)cc1,AC50,[5],28.4 µM (active)
same,AC50,HeLa,> 52 µM (inactive)
same,AC50,HEK293 [6],28.4 µM (active)
COc1cccc(S(=O)(=O)N(C)C[C@@H]2Oc3ncccc3C(=O)N([C@H](C)CO)C[C@@H]2C)c1,AC50,[7],9.81 µM (active)
C/C(=N\Nc1cccc2cccnc12)c1ccccc1O,IC50,HEK293 [8],> 67.5 µM (inactive)
same,IC50,[9],> 67.5 µM (inactive)
same,EC50,[10],> 67.5 µM (inactive)
same,IC50,[11],> 67.5 µM (inactive)
COc1ccc2c3c([nH]c2c1)[C@@H](CO)N(C(=O)CN(C)C)CC31CCN(CC2CCCCC2)CC1,AC50,[12],0.904 µM (active)
same,AC50,[13],0.361 µM (active)
same,AC50,[14],0.731 µM (active)
same,AC50,[15],0.137 µM (active)
same,AC50,[16],23.7 µM (active)
C/C=C/c1ccc([C@@H]2[C@@H]3CN(Cc4cccnc4)C[C@H]2N3)cc1,AC50,[12],1.41 µM (active)
same,AC50,[13],1.27 µM (active)
same,AC50,[14],1.83 µM (active)
same,AC50,[17],> 39 µM (inactive)
same,AC50,[15],1.41 µM (active)
same,AC50,[16],24.2 µM (active)
C/C(=C(/OCCOc1ccc(Cl)cc1)c1ccc(Cl)cc1Cl)n1ccnc1 [OMOCONAZOLE],IC50,[18],> 6.67 µM (inactive)
same,IC50,[19],> 6.67 µM (inactive)
same,IC50,[20],5.86 µM (inactive)
same,IC50,[21],> 6.67 µM (inactive)
same,IC50,[22],8.46 µM (inactive)
same,IC50,[23],4.18 µM (active)
same,IC50,[24],2.35 µM (active)
